Article PMC12302228 (RSC Medicinal Chemistry, 2025)
≈ marks a conversion by molar mass, not a printed value. Where two headings read alike, the source gives them in different places. Blank lines part the entries; values can stand above or below the molecule they belong to.

What was measured:
THP-1 cells = test: Differentiation of AML cells, CD11b/CD14 flow cytometry; format: cell-based, human; settings: 120 h
HT-29 = test: Antiproliferative activity, SRB assay; format: cell-based, human; settings: mean ± SEM
histone H2AX = test: H2AX phosphorylation, immunofluorescence in M21 cells; format: cell-based, human; settings: 24 h at 2-fold IC50
physchem = settings: ultrapure water, 37 °C, kinetic from dmso stock
human DHODH = human DHODH (Homo sapiens, UniProt Q02127); test: Human DHODH colorimetric; format: biochemical
M21 = test: Antiproliferative activity, SRB assay; format: cell-based, human; settings: mean ± SEM
MOLM-13 cells = test: Differentiation of AML cells, CD11b/CD14 flow cytometry; format: cell-based, human; settings: 120 h at 2-fold IC50
THP-1 = test: Antiproliferative activity, MTT assay; format: cell-based, human; settings: mean ± SEM
[1] = Metabolic stability in liver microsomes; format: in vitro ADME; settings: rat, pH 7.4
[2] = Metabolic stability in liver microsomes; format: in vitro ADME; settings: human, pH 7.4
MCF7 = test: Antiproliferative activity, SRB assay; format: cell-based, human; settings: mean ± SEM
[3] = Metabolic stability in liver microsomes; format: in vitro ADME, mouse; settings: for half-life at 4 µM / microsomal CLint at 4 µM: mouse, liver microsomes, pH 7.4; for Clearance category MLM: ranked by CLint
HL-60 = test: Antiproliferative activity, MTT assay; format: cell-based, human; settings: mean ± SEM
HT-1080 = test: Antiproliferative activity, SRB assay; format: cell-based, human; settings: read-out: IC50 HT-1080; 48 h of treatment; mean ± SEM
MOLM-13 = test: Antiproliferative activity, MTT assay; format: cell-based, human; settings: read-out: IC50 MOLM-13; 48 h of treatment; mean ± SEM
[4] = Homo sapiens, HT-29, 48 h, read-out: IC50 HT-29, 48 h of treatment
[5] = Homo sapiens, M21, 48 h, read-out: IC50 M21, 48 h of treatment
[6] = read-out: IC50 THP-1, 48 h of treatment
[7] = Homo sapiens, MCF7, 48 h, read-out: IC50 MCF7, 48 h of treatment
[8] = Homo sapiens, HL-60, 48 h, read-out: IC50 HL-60, 48 h of treatment
[9] = read-out: IC50 HT-29, 48 h of treatment
[10] = read-out: IC50 M21, 48 h of treatment
[11] = read-out: IC50 MCF7, 48 h of treatment
[12] = read-out: IC50 HL-60, 48 h of treatment

Chain of human DHODH (Q02127 whole entry): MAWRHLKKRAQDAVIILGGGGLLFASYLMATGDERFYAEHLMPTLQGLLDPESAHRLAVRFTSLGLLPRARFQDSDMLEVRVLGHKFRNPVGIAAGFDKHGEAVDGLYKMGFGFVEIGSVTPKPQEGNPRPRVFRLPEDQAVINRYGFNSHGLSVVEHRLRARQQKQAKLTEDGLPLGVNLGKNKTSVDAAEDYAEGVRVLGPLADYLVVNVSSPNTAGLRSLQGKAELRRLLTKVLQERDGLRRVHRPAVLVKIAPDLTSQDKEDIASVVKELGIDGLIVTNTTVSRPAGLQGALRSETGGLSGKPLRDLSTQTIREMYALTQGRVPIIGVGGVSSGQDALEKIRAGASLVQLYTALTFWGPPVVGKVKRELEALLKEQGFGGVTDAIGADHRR

Structure (SMILES): CCNC(=O)Nc1ccc(S(=O)(=O)Oc2cccnc2C(C)C)cc1.Cl [Compound 21, 2-Isopropylpyridin-3-yl 4-(3-ethylureido)benzenesulfonate hydrochloride]
CD11b and CD14 positivity, share of the cell population (THP-1 cells): 57% | IC50 (HT-29; [4]): 8 ± 0.3 µM | Phosphorylation of H2AX into γH2AX (γH2AX foci) (histone H2AX): promote the phosphorylation of H2AX into γH2AX | solubility at 24 h (physchem): 188 ± 1 µg/mL | IC50 (human DHODH): 0.012 µM | IC50 (M21; [5]): 11 ± 1 µM | CD11b expression, share of the cell population (MOLM-13 cells): 26% | IC50 (THP-1; [6]): 6 ± 2 µM | half-life at 4 µM [1]: 2.5 ± 0.5 h | microsomal CLint at 4 µM [1]: 11 ± 2 µL/min/mg | half-life at 4 µM [2]: 1.48 ± 0.0333 h | microsomal CLint at 4 µM [2]: 15.7 ± 0.3 µL/min/mg | IC50 (MCF7; [7]): 24 ± 3 µM | half-life at 4 µM [3]: 0.95 ± 0.0667 h | microsomal CLint at 4 µM [3]: 25 ± 2 µL/min/mg | Clearance category MLM [3]: medium (medium clearance category for MLM (13.1 < CLint < 71.1)) | IC50 (HL-60; [8]): 50 ± 10 µM

Structure (SMILES): Cc1c(-c2ccc(-c3ccccc3F)cc2)nc2ccc(F)cc2c1C(=O)O [Brequinar, reference compound]
IC50 (HT-29; [4]): 0.69 ± 0.07 µM | IC50 (M21; [5]): 0.46 ± 0.05 µM | CD11b expression, share of the cell population (MOLM-13 cells): 34% | IC50 (THP-1; Homo sapiens, THP-1, 48 h, read-out: IC50 THP-1, 48 h of treatment): 0.17 ± 0.04 µM | IC50 (MCF7; [7]): 3.8 ± 0.9 µM

Structure (SMILES): CCNC(=O)Nc1ccc(S(=O)(=O)Oc2cccnc2I)cc1.Cl [Compound 20, 2-Iodopyridin-3-yl 4-(3-ethylureido)benzenesulfonate hydrochloride]
IC50 (HT-29; [4]): 6.8 ± 0.6 µM | Phosphorylation of H2AX into γH2AX (γH2AX foci) (histone H2AX): promote the phosphorylation of H2AX into γH2AX | solubility at 24 h (physchem): 190 ± 10 µg/mL | IC50 (human DHODH): 0.031 µM | IC50 (M21; [5]): 7.7 ± 0.7 µM | CD11b expression, share of the cell population (MOLM-13 cells): 38% | IC50 (THP-1; [6]): 1.1 ± 0.5 µM | half-life at 4 µM [1]: 3.17 ± 0.333 h | microsomal CLint at 4 µM [1]: 7.4 ± 0.6 µL/min/mg | half-life at 4 µM [2]: 3.6 ± 0.167 h | microsomal CLint at 4 µM [2]: 6.5 ± 0.3 µL/min/mg | IC50 (MCF7; [7]): 12 ± 1 µM | half-life at 4 µM [3]: 1.33 ± 0.167 h | microsomal CLint at 4 µM [3]: 18 ± 2 µL/min/mg | Clearance category MLM [3]: medium (medium clearance category for MLM (13.1 < CLint < 71.1)) | IC50 (HL-60; [8]): 37 ± 6 µM

Structure (SMILES): Cl.O=C(NCCCl)Nc1ccc(S(=O)(=O)Oc2cccnc2Br)cc1 [Compound 27, 2-Bromopyridin-3-yl 4-(3-(2-chloroethyl)ureido)benzenesulfonate hydrochloride]
IC50 (HT-29; [9]): 33 ± 1 µM | solubility at 24 h (physchem): 189 ± 5 µg/mL | IC50 (HT-1080): 5.5 ± 0.4 µM | IC50 (M21; [10]): 30 ± 2 µM | IC50 (THP-1; [6]): 4.9 ± 0.3 µM | IC50 (MOLM-13): 4.8 ± 0.7 µM | IC50 (MCF7; [11]): 16 ± 1 µM | IC50 (HL-60; [12]): > 50 µM

Structure (SMILES): CCNC(=O)Nc1ccc(S(=O)(=O)Oc2cccnc2I)cc1 [Compound 2, 2-Iodopyridin-3-yl 4-(3-ethylureido)benzenesulfonate]
IC50 (HT-29; [9]): 10.6 ± 0.9 µM | Phosphorylation of H2AX into γH2AX (γH2AX foci) (histone H2AX): promote the phosphorylation of H2AX into γH2AX | solubility at 24 h (physchem): 57 ± 3 µg/mL (≈ 127 µM) | IC50 (HT-1080): 1.4 ± 0.1 µM | IC50 (M21; [10]): 13 ± 2 µM | IC50 (THP-1; [6]): 3.8 ± 0.6 µM | IC50 (MOLM-13): 0.9 ± 0.3 µM | IC50 (MCF7; [11]): 11 ± 1 µM | IC50 (HL-60; [12]): 25 ± 4 µM

Structure (SMILES): CCNC(=O)Nc1ccc(S(=O)(=O)Oc2cnccc2Br)cc1.Cl [Compound 30, 4-Bromopyridin-3-yl 4-(3-ethylureido)benzenesulfonate hydrochloride]
IC50 (HT-29; [9]): 45 ± 4 µM | solubility at 24 h (physchem): 122 ± 4 µg/mL | IC50 (HT-1080): 6.7 ± 0.4 µM | IC50 (M21; [10]): 44 ± 3 µM | IC50 (THP-1; [6]): 6 ± 2 µM | IC50 (MOLM-13): 3.7 ± 0.5 µM | IC50 (MCF7; [11]): 45 ± 4 µM | IC50 (HL-60; [12]): 80 ± 5 µM

Continued by falling IC50 (THP-1; [6]), values first:

IC50 (HT-29; [9]): 9.7 ± 0.7 µM | solubility at 24 h (physchem): 64 ± 1 µg/mL (≈ 160 µM) | IC50 (HT-1080): 2.1 ± 0.3 µM | IC50 (THP-1; [6]): 7 ± 1 µM | IC50 (MOLM-13): 1.1 ± 0.2 µM | IC50 (MCF7; [11]): 31 ± 3 µM | IC50 (HL-60; [12]): 40 ± 10 µM
Structure (SMILES): CCNC(=O)Nc1ccc(S(=O)(=O)Oc2cccnc2Br)cc1 [Compound 1, 2-Bromopyridin-3-yl 4-(3-ethylureido)benzenesulfonate]
IC50 (M21; [10]): 12 ± 1 µM

IC50 (HT-29; [9]): > 100 µM | solubility at 24 h (physchem): 151 ± 1 µg/mL | IC50 (HT-1080): 15 ± 2 µM | IC50 (THP-1; [6]): 6 ± 2 µM | IC50 (MOLM-13): 14 ± 2 µM | IC50 (MCF7; [11]): 33 ± 4 µM | IC50 (HL-60; [12]): 15 ± 3 µM
Structure (SMILES): CCCNC(=O)Nc1ccc(S(=O)(=O)Oc2cccnc2C)cc1.Cl [Compound 26, 2-Methylpyridin-3-yl 4-(3-propylureido)benzenesulfonate hydrochloride]
IC50 (M21; [10]): > 100 µM

IC50 (HT-29; [9]): 9.6 ± 0.7 µM | solubility at 24 h (physchem): 98 ± 7 µg/mL | IC50 (HT-1080): 5.9 ± 0.7 µM | IC50 (THP-1; [6]): 2.9 ± 0.1 µM | IC50 (MOLM-13): 2.4 ± 0.3 µM | IC50 (MCF7; [11]): 26 ± 2 µM | IC50 (HL-60; [12]): > 100 µM
Structure (SMILES): CCNC(=O)Nc1ccc(S(=O)(=O)Oc2cnccc2C)cc1.Cl [Compound 32, 4-Methylpyridin-3-yl 4-(3-ethylureido)benzenesulfonate hydrochloride]
IC50 (M21; [10]): 35 ± 4 µM

IC50 (HT-29; [9]): 16 ± 1 µM | solubility at 24 h (physchem): 23 ± 2 µg/mL (≈ 49.9 µM) | IC50 (HT-1080): 2 ± 0.2 µM | IC50 (THP-1; [6]): 2.4 ± 0.1 µM | IC50 (MOLM-13): 2.2 ± 0.3 µM | IC50 (MCF7; [11]): 13 ± 1 µM | IC50 (HL-60; [12]): 24 ± 5 µM
Structure (SMILES): CCCNC(=O)Nc1ccc(S(=O)(=O)Oc2cccnc2I)cc1 [Compound 6, 2-Iodopyridin-3-yl 4-(3-propylureido)benzenesulfonate]
IC50 (M21; [10]): 17 ± 1 µM

IC50 (HT-29; [9]): 11 ± 1 µM | solubility at 24 h (physchem): 165 ± 3 µg/mL | IC50 (HT-1080): 5.3 ± 0.4 µM | IC50 (THP-1; [6]): 2.2 ± 0.3 µM | IC50 (MOLM-13): 1.4 ± 0.4 µM | IC50 (MCF7; [11]): 19 ± 3 µM | IC50 (HL-60; [12]): 32 ± 9 µM
Structure (SMILES): CCNC(=O)Nc1ccc(S(=O)(=O)Oc2cnccc2I)cc1.Cl [Compound 31, 4-Iodopyridin-3-yl 4-(3-ethylureido)benzenesulfonate hydrochloride]
IC50 (M21; [10]): 11 ± 1 µM

IC50 (HT-29; [9]): 8.4 ± 0.7 µM | solubility at 24 h (physchem): 40 ± 3 µg/mL (≈ 110 µM) | IC50 (HT-1080): 1.2 ± 0.2 µM | IC50 (THP-1; [6]): 1.5 ± 0.3 µM | IC50 (MOLM-13): 0.8 ± 0.2 µM | IC50 (MCF7; [11]): 19 ± 2 µM | IC50 (HL-60; [12]): 29 ± 6 µM
Structure (SMILES): CCNC(=O)Nc1ccc(S(=O)(=O)Oc2cccnc2C(C)C)cc1 [Compound 3, 2-Isopropylpyridin-3-yl 4-(3-ethylureido)benzenesulfonate]
Phosphorylation of H2AX into γH2AX (γH2AX foci) (histone H2AX): promote the phosphorylation of H2AX into γH2AX | IC50 (M21; [10]): 7 ± 1 µM
